Assay [1] relates to Colletotrichum lindemuthianum. The assay can be described thus: Colletotrichum lindemuthianum in vitro cell test. The format is cell-based. As to conditions: 144 h, 20 ppm of active ingredient, 6 days incubation, read-out: efficacy (inhibition of fungal growth). The protocol: (§1) • Solvent: DMSO • Culture medium: 14.6 g anhydrous D-glucose (VWR), 7.1 g Mycological Peptone (Oxoid), 1.4 g granulated Yeast Extract (Merck), QSP 1 liter • Inoculum: spores suspension
(§2) Fungicides were solubilized in DMSO and the solution used to prepare the required range of concentrations. The final concentration of DMSO used in the assay was ≤[…]1%.
A spore suspension of C. lindemuthianum was prepared and diluted to the desired spore density.
Fungicides were evaluated for their ability to inhibit spores germination and mycelium growth in liquid culture assay. The compounds were added in the desired concentration to the culture medium with spores. After 6 days incubation, fungi-toxicity of compounds was determined by spectrometric measurement of mycelium growth. Inhibition of fungal growth was determined by comparing the absorbance values in wells containing the fungicides with the absorbance in control wells without fungicides.

Assay [2] concerns Pseudomonas syringae pv. tomato. Put plainly: In vivo preventive test on Pseudomonas syringae pv. tomato (bacterial speck on tomato). The conditions noted are these: evaluated 5 or 6 days after inoculation, read-out: efficacy; for pest or weed control at 500 ppm: 500 ppm of active ingredient; for pest or weed control at 31 ppm: 31 ppm of active ingredient. In a few lines: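 Young tomato plants sprayed with compound in acetone/DMSO/Tween diluted in water; solvent-only controls. Inoculated 72 h later by spraying leaves with bacterial suspension; 4 days saturated atmosphere then 1–2 days at 70–80% RH, 22 °C day/20 °C night. Efficacy scored 5–6 days post-inoculation, 0% = control, 100% = no disease.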

A further assay has as its system Peronospora parasitica. The assay can be described thus: In vivo preventive test on Peronospora parasitica (Crucifer downy mildew). The conditions noted are these: Hyaloperonospora parasitica, in Brassica oleracea, 120 h, cabbage, evaluated 5 days after inoculation, read-out: efficacy; for pest or weed control at 31 ppm: 31 ppm of active ingredient; for pest or weed control at 125 ppm: 125 ppm of active ingredient; for pest or weed control at 500 ppm: 500 ppm of active ingredient. A digest of the protocol: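 Young cabbage plants were sprayed with compound in acetone/DMSO/Tween diluted with water, then inoculated 72 h later with a Peronospora parasitica spore suspension. Plants were kept 5 days at 20 °C and 100% RH. Efficacy was scored with 0% equal to solvent-treated controls and 100% meaning no disease.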

The subject of assay [3] is Xanthomonas campestris pv. campestris. The assay can be described thus: Xanthomonas campestris pv. campestris in vitro cell test. The conditions noted are these: 20 ppm of active ingredient, 24 h incubation, read-out: efficacy (inhibition of bacteria growth). In kind it is cell-based. In a few lines:
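Liquid-culture growth test in LB broth, with compound dissolved in DMSO (≤1% final) and added to an OD-adjusted bacterial inoculum. Absorbance after 24 h incubation was compared with wells lacking active ingredient to give inhibition.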

A further assay deals with Uromyces appendiculatus. The assay can be described thus: In vivo preventive test on Uromyces appendiculatus (bean rust). As to conditions: 240 h, evaluated 10 days after inoculation, read-out: efficacy; for pest or weed control at 500 ppm: 500 ppm of active ingredient; for pest or weed control at 125 ppm: 125 ppm of active ingredient. In a few lines:
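Young bean plants sprayed with compound in acetone/DMSO/Tween diluted in water, inoculated 72 h later with U. appendiculatus spore suspension. Held 24 h at 20 °C, 100% RH, then 9 days at 20 °C, 70-80% RH. Efficacy scored 10 days post-inoculation versus solvent-treated controls (0% = control, 100% = no disease).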

In assay [4] the test system is Pseudomonas syringae pv. tomato. Put plainly: Pseudomonas syringae pv. tomato in vitro cell test. As to conditions: 20 ppm of active ingredient, 24 h incubation, read-out: efficacy (inhibition of bacteria growth). In kind it is cell-based. A digest of the protocol: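 Compounds in 1% final DMSO were added to LB broth containing OD-adjusted bacterial suspension. After 24 h, absorbance measured growth, and inhibition was expressed relative to wells lacking active ingredient.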

Assay [5] concerns Colletotrichum lindemuthianum. The assay can be described thus: In vivo preventive test on Colletotrichum lindemuthianum (Antrachnose on bean). As to conditions: 144 h, inoculation 72 h after spraying, evaluated 6 days after inoculation, read-out: efficacy; for pest or weed control at 31 ppm: 31 ppm of active ingredient; for pest or weed control at 500 ppm: 500 ppm of active ingredient. In a few lines:
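Young bean plants sprayed preventively with compound in acetone/DMSO/Tween diluted in water, then spore-inoculated 72 h later. Incubation 24 h at 20° C./100% RH, then 5 days at 20° C./90% RH; scored 6 days post-inoculation as % efficacy (0% = solvent-treated control, 100% = no disease).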

A further assay deals with Alternaria alternata. The assay can be described thus: Alternaria alternata in vitro cell test. The conditions noted are these: 120 h, 20 ppm of active ingredient, 5 days incubation, read-out: efficacy (inhibition of fungal growth). The format is cell-based. The protocol:
as §1, §2
A spore suspension of A. alternata was prepared and diluted to the desired spore density.
Fungicides were evaluated for their ability to inhibit spore germination and mycelium growth in liquid culture assay. The compounds were added in the desired concentration to the culture medium with spores. After 5 days incubation, fungi-toxicity of compounds was determined by spectrometric measurement of mycelium growth. Inhibition of fungal growth was determined by comparing the absorbance values in wells containing the fungicides with the absorbance in control wells without fungicides.

For `COC(=O)CNC(=S)c1sc(Cl)c(Cl)c1Cl` [I.038, methyl N-[(3,4,5-trichloro-2-thienyl)carbonothioyl]glycinate], the inhibition at 20 ppm (in assay [1]; in assay [3]; in assay [4]; in the assay with Alternaria alternata) was at most 30% throughout. In addition, the pest or weed control at 500 ppm was 70 to 79% in assay [2], 90 to 100% in the assay with Peronospora parasitica, 90 to 100% with Uromyces appendiculatus and 90 to 100% in assay [5]. Besides, the pest or weed control at 31 ppm (in the assay on Peronospora parasitica; in assay [5]) was 90 to 100% in each case. The pest or weed control at 125 ppm in the assay with Peronospora parasitica lay in the range of 90 to 100%.
On to `CCOC(=O)C(C#N)NC(=O)c1sc(Cl)c(Cl)c1Cl` (centres unmarked) [I.009], for which the inhibition at 20 ppm (in assay [1]; in assay [3]; in assay [4]; in the assay on Alternaria alternata) was at most 30% each time. The pest or weed control at 500 ppm (in assay [2]; in the assay with Peronospora parasitica; in the assay with Uromyces appendiculatus; in assay [5]) was 90 to 100% in each case. Also, the pest or weed control at 31 ppm with Peronospora parasitica lay in the range of 90 to 100%. Moreover, the pest or weed control at 125 ppm in the assay on Peronospora parasitica and in the assay on Uromyces appendiculatus was 90 to 100% in each case.
`O=C(O)CNC(=S)c1sc(Cl)c(Cl)c1Cl` [I.022, N-[(3,4,5-trichloro-2-thienyl)carbonothioyl]glycine]: the inhibition at 20 ppm (in assay [1]; in assay [3]; in assay [4]; with Alternaria alternata) was at most 30% in each case. The pest or weed control at 500 ppm (in assay [2]; with Peronospora parasitica; in the assay on Uromyces appendiculatus; in assay [5]) was 90 to 100% throughout. In addition, the pest or weed control at 31 ppm in the assay with Peronospora parasitica lay in the range of 90 to 100%; in assay [5], 70 to 79%. In addition, in the assay on Peronospora parasitica, the pest or weed control at 125 ppm lay in the range of 90 to 100%.
For `C[C@H](NC(=S)c1sc(Cl)c(Cl)c1Cl)C(=O)O` [I.113], the inhibition at 20 ppm (in assay [1]; in assay [3]; in assay [4]; with Alternaria alternata) was at most 30% in each case. For the same compound, the pest or weed control at 31 ppm with Peronospora parasitica lay in the range of 80 to 89%. Further, the pest or weed control at 125 ppm in the assay on Peronospora parasitica and with Uromyces appendiculatus was 90 to 100% in each case. Besides, the pest or weed control at 500 ppm (with Peronospora parasitica; in the assay with Uromyces appendiculatus; in assay [5]) was 90 to 100% in each case.
For `C[C@H](NC(=O)c1sc(Cl)c(Cl)c1Cl)C(N)=O` [I.119], the inhibition at 20 ppm (in assay [1]; in assay [3]; in assay [4]; in the assay with Alternaria alternata) was at most 30% throughout. The results for the pest or weed control at 31 ppm (in assay [2]; with Peronospora parasitica; in assay [5]) were 70 to 79%, 90 to 100% and 70 to 79%, respectively. The pest or weed control at 500 ppm (in assay [2]; in the assay with Uromyces appendiculatus; in assay [5]) was 90 to 100% each time. Moreover, the pest or weed control at 125 ppm in the assay with Peronospora parasitica and in the assay on Uromyces appendiculatus was 90 to 100% each time.
For `COC(=O)C(CC(F)F)NC(=O)c1sc(Cl)c(Cl)c1Cl` (centres unmarked) [I.016], the inhibition at 20 ppm (in assay [1]; in assay [3]; in assay [4]; in the assay with Alternaria alternata) was at most 30% throughout. In addition, the values for the pest or weed control at 31 ppm (in assay [2]; in the assay with Peronospora parasitica; in assay [5]) were 70 to 79%, 90 to 100% and 80 to 89%, respectively. Besides, the pest or weed control at 500 ppm (in assay [2]; with Peronospora parasitica; in the assay on Uromyces appendiculatus; in assay [5]) was 90 to 100% each time. In addition, the pest or weed control at 125 ppm in the assay with Peronospora parasitica and in the assay with Uromyces appendiculatus was 90 to 100% throughout.
For `COC(=O)[C@H](CC(N)=O)NC(=O)c1sc(Cl)c(Cl)c1Cl` [I.015], the inhibition at 20 ppm (in assay [1]; in assay [3]; in assay [4]; in the assay with Alternaria alternata) was at most 30% each time. The pest or weed control at 31 ppm in assay [2] was 80 to 89%; in the assay with Peronospora parasitica, 90 to 100%. The pest or weed control at 125 ppm in the assay with Peronospora parasitica fell in the range of 90 to 100%; in the assay on Uromyces appendiculatus, 80 to 89%.
`CCOC(=O)C(CC(N)=O)NC(=O)c1sc(Cl)c(Cl)c1Cl` (centres unmarked) [I.046]: the inhibition at 20 ppm (in assay [1]; in assay [3]; in assay [4]; with Alternaria alternata) was at most 30% throughout. In addition, the results for the pest or weed control at 31 ppm (in the assay with Peronospora parasitica; in assay [5]) were 90 to 100% and 80 to 89%, respectively. Further, the pest or weed control at 125 ppm with Peronospora parasitica and with Uromyces appendiculatus was 90 to 100% throughout. Moreover, the pest or weed control at 500 ppm (in the assay with Peronospora parasitica; with Uromyces appendiculatus; in assay [5]) was 90 to 100% each time.
Consider `COC(=O)[C@H](CSC(=O)N(C)C)NC(=O)c1sc(Cl)c(Cl)c1Cl` [I.142], for which the pest or weed control at 31 ppm lay in the range of 70 to 79% in assay [2], 90 to 100% in the assay with Peronospora parasitica and 80 to 89% in assay [5]. Moreover, the pest or weed control at 125 ppm with Peronospora parasitica and with Uromyces appendiculatus was 90 to 100% each time. Also, the inhibition at 20 ppm (in assay [3]; in assay [4]; with Alternaria alternata) was at most 30% throughout.
Take `COC(=O)[C@H](CCCNC(=N)N)NC(=O)c1sc(Cl)c(Cl)c1Cl` [I.008]: the inhibition at 20 ppm (in assay [1]; in assay [3]; in assay [4]; with Alternaria alternata) was at most 30% throughout. For the same compound, the pest or weed control at 500 ppm lay in the range of 70 to 79% in assay [2], 90 to 100% in the assay with Peronospora parasitica and 90 to 100% in the assay on Uromyces appendiculatus. Further, the pest or weed control at 31 ppm with Peronospora parasitica was 90 to 100%. Further, the pest or weed control at 125 ppm is 90 to 100% with Peronospora parasitica and 70 to 79% with Uromyces appendiculatus.
For `COC(=O)C(Cc1c[nH]cn1)NC(=O)c1sc(Cl)c(Cl)c1Cl` (centres unmarked) [I.012], the inhibition at 20 ppm in assay [1], in assay [3] and in assay [4] was at most 30% throughout. Moreover, the pest or weed control at 31 ppm in assay [2] is at least 70%; in the assay on Peronospora parasitica, 70 to 79%. In addition, the pest or weed control at 125 ppm in the assay on Peronospora parasitica lay in the range of 90 to 100%. Besides, the pest or weed control at 500 ppm (in the assay on Peronospora parasitica; with Uromyces appendiculatus; in assay [5]) was 90 to 100% in each case.
Regarding `COC(=O)C[C@H](NC(=O)c1sc(Cl)c(Cl)c1Cl)C(=O)OC` [I.144], the pest or weed control at 31 ppm fell in the range of 80 to 89% in assay [2], 90 to 100% with Peronospora parasitica and 80 to 89% in assay [5]. In addition, the pest or weed control at 125 ppm in the assay with Peronospora parasitica and in the assay with Uromyces appendiculatus was 90 to 100% each time. The inhibition at 20 ppm (in assay [3]; in assay [4]; with Alternaria alternata) was at most 30% throughout.
